Reference: patent publication US10590082B2, “N-(5-((aryl or heteroaryl)methyloxy)pentyl)-substituted iminosugars as inhibitors of glucosylceramide synthase” (Academisch Medisch Centrum, priority 2014, dated 2020)
Read-outs that look alike come from different tables or passages of the source.

Assays:
[1] = target: T1, glucosylceramide synthase (GCS) (Mus musculus, UniProt O88693); test: GCS activity in living macrophage  cells (C6-NBD lipid, TLC readout); assay type: cell-based
T1 construct: IC50 values for GCS activity were measured using living cells; endogenous in cells
T1 sequence (O88693 1-394): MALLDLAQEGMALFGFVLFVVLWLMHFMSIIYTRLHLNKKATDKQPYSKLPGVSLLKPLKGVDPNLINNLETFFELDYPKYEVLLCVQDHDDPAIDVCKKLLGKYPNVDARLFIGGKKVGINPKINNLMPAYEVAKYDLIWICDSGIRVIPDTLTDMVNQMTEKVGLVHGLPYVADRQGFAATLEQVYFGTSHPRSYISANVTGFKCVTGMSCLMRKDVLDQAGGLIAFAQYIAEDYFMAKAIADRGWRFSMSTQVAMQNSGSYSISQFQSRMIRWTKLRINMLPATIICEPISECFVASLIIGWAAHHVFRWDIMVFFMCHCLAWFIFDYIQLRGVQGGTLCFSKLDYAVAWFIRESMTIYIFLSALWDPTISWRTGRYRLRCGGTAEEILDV

GBA1 = target: T2, GBA1 (Homo sapiens, UniProt P04062, R534H); test: GBA1 activity, recombinant human enzyme (Cerezyme), 4-MU-β-glucoside substrate; assay type: biochemical;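 further: enzyme activity read out as fluorescence of the 4-MU released from the substrate, measured on a fluorimeter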
T2 construct: purchased Sanofi (Cerezyme)
T2 sequence (P04062 40-536 R534H): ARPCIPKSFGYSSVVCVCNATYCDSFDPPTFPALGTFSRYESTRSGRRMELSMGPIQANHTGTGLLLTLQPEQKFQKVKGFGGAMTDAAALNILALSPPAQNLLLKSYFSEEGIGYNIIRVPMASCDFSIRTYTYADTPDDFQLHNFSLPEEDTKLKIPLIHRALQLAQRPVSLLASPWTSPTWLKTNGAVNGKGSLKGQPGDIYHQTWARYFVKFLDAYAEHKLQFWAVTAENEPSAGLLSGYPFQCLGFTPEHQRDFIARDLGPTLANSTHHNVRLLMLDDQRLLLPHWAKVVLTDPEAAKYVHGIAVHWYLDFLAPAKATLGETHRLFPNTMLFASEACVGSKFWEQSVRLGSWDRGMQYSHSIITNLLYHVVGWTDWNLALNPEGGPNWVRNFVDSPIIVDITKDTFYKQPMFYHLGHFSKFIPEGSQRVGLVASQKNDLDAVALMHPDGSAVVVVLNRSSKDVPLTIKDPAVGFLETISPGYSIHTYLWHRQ

GBA2 = target: T3, GBA2 (Homo sapiens, UniProt Q9HCG7); test: GBA2 activity, membrane fraction from Gaucher spleen, 4-MU-β-glucoside substrate; assay type: biochemical;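 further: Read-out is fluorimetric quantification of released 4-MU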
T3 construct: measured using a membrane fraction obtained from Gaucher spleen; from tissue; host or cells: membrane fraction of Gaucher spleen, pre-treated with conduritol B-epoxide
T3 sequence (Q9HCG7 1-927): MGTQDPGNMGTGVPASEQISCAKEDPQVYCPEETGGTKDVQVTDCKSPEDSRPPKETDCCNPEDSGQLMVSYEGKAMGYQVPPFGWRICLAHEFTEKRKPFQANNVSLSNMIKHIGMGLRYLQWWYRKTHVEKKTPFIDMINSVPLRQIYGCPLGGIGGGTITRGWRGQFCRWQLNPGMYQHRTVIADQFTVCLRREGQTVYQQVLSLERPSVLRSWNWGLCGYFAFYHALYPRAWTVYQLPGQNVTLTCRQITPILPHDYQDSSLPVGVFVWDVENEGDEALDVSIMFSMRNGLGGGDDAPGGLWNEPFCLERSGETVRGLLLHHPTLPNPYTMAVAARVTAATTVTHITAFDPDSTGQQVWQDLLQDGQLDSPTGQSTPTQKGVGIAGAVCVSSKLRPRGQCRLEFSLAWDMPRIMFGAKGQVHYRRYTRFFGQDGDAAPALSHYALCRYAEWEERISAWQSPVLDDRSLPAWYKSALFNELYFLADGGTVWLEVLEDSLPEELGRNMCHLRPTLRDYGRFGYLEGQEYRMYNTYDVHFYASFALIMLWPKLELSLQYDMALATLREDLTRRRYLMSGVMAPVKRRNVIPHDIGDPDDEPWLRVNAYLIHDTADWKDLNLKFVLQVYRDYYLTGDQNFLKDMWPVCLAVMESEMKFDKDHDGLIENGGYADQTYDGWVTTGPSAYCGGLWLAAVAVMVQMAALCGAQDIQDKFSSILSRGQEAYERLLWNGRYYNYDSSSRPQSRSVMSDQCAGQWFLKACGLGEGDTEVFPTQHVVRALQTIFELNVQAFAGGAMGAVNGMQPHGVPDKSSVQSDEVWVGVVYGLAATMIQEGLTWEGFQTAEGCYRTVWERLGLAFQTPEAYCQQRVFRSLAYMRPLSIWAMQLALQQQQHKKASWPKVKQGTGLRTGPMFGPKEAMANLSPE

[2] = L-ido configuration series, Example 4
[3] = D-gluco configuration series, Example 3, read-out: GCS [nM] (IC50)
[4] = D-gluco configuration series, Example 3
[5] = L-ido configuration series, Example 4, read-out: GCS [nM] (IC50)

| Compound | IC50 ([1]; read-out: GCS [nM] (IC50)) | IC50 (GBA1) [nM] | IC50 (GBA2; [2]) [nM] | IC50 (GBA2) [nM] | IC50 [1, 3] [nM] | IC50 (GBA2; [4]) [nM] | IC50 [1, 5] [nM] | IC50 ([1]; read-out: inhibitory potency towards GCS, expressed as IC50) [nM] |
| --- | --- | --- | --- | --- | --- | --- | --- | --- |
| OC[C@H]1[C@@H](O)[C@H](O)[C@@H](O)CN1CCCCCOCc1ccccc1-c1ccccc1 [Compound 40] | 25 | 15000 | 3 |  |  |  |  |  |
| OC[C@H]1[C@@H](O)[C@H](O)[C@@H](O)CN1CCCCCOCc1ccc(-c2ccccc2)c(C(F)(F)F)c1 [Compound 45] | 3 | 6000 | 0.1 |  |  |  |  |  |
| OC[C@@H]1[C@@H](O)[C@H](O)[C@@H](O)CN1CC(F)(F)CCCOCc1ccc(-c2ccccc2)cc1 [Compound 11] | 200 | 500 |  | 2 |  |  |  |  |
| OC[C@H]1[C@@H](O)[C@H](O)[C@@H](O)CN1CCCCCOCc1ccc(-c2ccccc2)cc1F [Compound 46] | 5 | 8000 | 0.4 |  |  |  |  |  |
| OC[C@H]1[C@@H](O)[C@H](O)[C@@H](O)CN1CCCCCOCc1ccc(-c2ccccc2)c(F)c1 [Compound 47] | 2.5 | 6000 | 0.6 |  |  |  |  |  |
| N#Cc1cccc(-c2ccc(COCCCCCN3C[C@H](O)[C@@H](O)[C@H](O)[C@H]3CO)cc2)c1 [Compound 29] |  | 700 |  |  | 50 | 2 |  |  |
| C[C@@H](OCCCCCN1C[C@H](O)[C@@H](O)[C@H](O)[C@@H]1CO)c1ccc(-c2ccccc2)cc1 [Compound 39] |  | 10000 | 1 |  |  |  | 40 |  |
| OC[C@@H]1[C@@H](O)[C@H](O)[C@@H](O)CN1CCCCCOCc1ccc(-c2ccccc2)cc1C(F)(F)F [Compound 8] | 25 | 200 |  |  |  | 0.12 |  |  |
| OC[C@@H]1[C@@H](O)[C@H](O)[C@@H](O)CN1CCCCCOCc1ccccc1-c1ccccc1 [Compound 14] | 50 | 1250 |  |  |  | 3 |  |  |
| OC[C@@H]1[C@@H](O)[C@H](O)[C@@H](O)CN1CCCC(F)(F)COCc1ccc(-c2ccccc2)cc1 [Compound 10] | 15 | 12500 |  | 2 |  |  |  |  |
| OC[C@H]1[C@@H](O)[C@H](O)[C@@H](O)CN1CCCC(F)(F)COCc1ccc(-c2ccccc2)cc1 [Compound 43] | 15 | 12500 | 2 |  |  |  |  |  |
| OC[C@H]1[C@@H](O)[C@H](O)[C@@H](O)CN1CCCCCOCc1ccc(-c2ccccc2)cc1C(F)(F)F [Compound 44] | 3 | 5000 | 0.1 |  |  |  |  |  |
| COc1cccc(-c2ccc(COCCCCCN3C[C@H](O)[C@@H](O)[C@H](O)[C@H]3CO)cc2)c1 [Compound 32] | 150 | 2500 |  |  |  | 20 |  |  |
| OC[C@@H]1[C@@H](O)[C@H](O)[C@@H](O)CN1CCCCCOCc1cccc(-c2ccccc2)c1 [Compound 13] | 75 | 300 |  |  |  | 2 |  |  |
| OC[C@@H]1[C@@H](O)[C@H](O)[C@@H](O)CN1CCCCCOCc1ccc(-c2ccccc2)c(C(F)(F)F)c1 [Compound 9] | 25 | 100 |  |  |  |  |  |  |
| C[C@@H](OCCCCCN1C[C@H](O)[C@@H](O)[C@H](O)[C@H]1CO)c1ccc(-c2ccccc2)cc1 [Compound 5] |  | 10000 |  |  | 40 |  |  |  |
| OC[C@@H]1[C@@H](O)[C@H](O)[C@@H](O)CN1CCCCCOCc1ccc(-c2ccccc2)cc1F [Compound 6] | 25 | 250 |  |  |  |  |  |  |
| C[C@H](OCCCCCN1C[C@H](O)[C@@H](O)[C@H](O)[C@H]1CO)c1ccc(-c2ccccc2)cc1 [Compound 4] |  | 10000 |  |  | 50 |  |  | 100 |

| Compound | IC50 ([1]; read-out: GCS [nM] (IC50)) | IC50 (GBA1) [nM] | IC50 (GBA2; [2]) [nM] | IC50 (GBA2) [nM] | IC50 [1, 3] [nM] | IC50 (GBA2; [4]) [nM] | IC50 [1, 5] [nM] | IC50 ([1]; read-out: inhibitory potency towards GCS, expressed as IC50) [nM] |
| --- | --- | --- | --- | --- | --- | --- | --- | --- |
| OC[C@@H]1[C@@H](O)[C@H](O)[C@@H](O)CN1CCCCCOCc1ccc(-c2ccccc2)cn1 [Compound 12] | 200 | 1500 |  |  |  | 3 |  |  |
| OC[C@@H]1[C@@H](O)[C@H](O)[C@@H](O)CN1CCCCCOCc1ccc(-c2ccccc2)c(F)c1 [Compound 7] | 25 | 200 |  |  |  |  |  |  |
| OC[C@@H]1[C@@H](O)[C@H](O)[C@@H](O)CN1CCCCCOCc1ccc(-c2ccc(Cl)cc2)cc1 [Compound 24] | 25 | 500 |  |  |  | 2 |  |  |
| OC[C@@H]1[C@@H](O)[C@H](O)[C@@H](O)CN1CCCCCOCc1ccc(-c2ccncc2)cc1 [Compound 18] |  | 2000 |  |  | 2000 | 10 |  |  |
| C[C@H](OCCCCCN1C[C@H](O)[C@@H](O)[C@H](O)[C@@H]1CO)c1ccc(-c2ccccc2)cc1 [Compound 38] |  | 10000 | 2 |  |  |  | 30 |  |
| OC[C@H]1[C@@H](O)[C@H](O)[C@@H](O)CN1CC(F)(F)CCCOCc1ccc(-c2ccccc2)cc1 [Compound 42] |  | 500000 | 2 |  |  |  |  |  |
| OC[C@@H]1[C@@H](O)[C@H](O)[C@@H](O)CN1CCCCCOCc1ccc(-c2ccc(C(F)(F)F)cc2)cc1 [Compound 23] | 20 | 800 |  |  |  | 10 |  |  |
| OC[C@@H]1[C@@H](O)[C@H](O)[C@@H](O)CN1CCCCCOCc1ccc(-c2ccc3c(c2)OCO3)cc1 [Compound 21] | 25 | 2500 |  | 10 |  |  |  |  |
| OC[C@@H]1[C@@H](O)[C@H](O)[C@@H](O)CN1CCCCCOCc1ccc(-c2ccccc2F)cc1 [Compound 25] | 74 | 600 |  |  |  | 2 |  |  |
| N#Cc1ccccc1-c1ccc(COCCCCCN2C[C@H](O)[C@@H](O)[C@H](O)[C@H]2CO)cc1 [Compound 28] | 150 | 600 |  |  |  | 5 |  |  |
| OC[C@@H]1[C@@H](O)[C@H](O)[C@@H](O)CN1CCCCCOCc1ccc(-c2ccc3c(c2)OCCO3)cc1 [Compound 20] | 25 | 3000 |  | 10 |  |  |  |  |
| Cc1ccc(-c2ccc(COCCCCCN3C[C@H](O)[C@@H](O)[C@H](O)[C@H]3CO)cc2)cc1 [Compound 36] | 100 | 250 |  |  |  | 3 |  |  |
| OC[C@@H]1[C@@H](O)[C@H](O)[C@@H](O)CN1CCCCCOCc1ccc(-c2cc(C(F)(F)F)cc(C(F)(F)F)c2)cc1 [Compound 22] | 20 | 800 |  |  |  | 15 |  |  |
| COc1ccc(-c2ccc(COCCCCCN3C[C@H](O)[C@@H](O)[C@H](O)[C@H]3CO)cc2)cc1 [Compound 33] | 25 | 2500 |  |  |  | 10 |  |  |
| OC[C@@H]1[C@@H](O)[C@H](O)[C@@H](O)CN1CCCCCOCc1ccc(-c2cccnc2)cc1 [Compound 17] | 200 | 3000 |  |  |  | 10 |  |  |
| Cc1cccc(-c2ccc(COCCCCCN3C[C@H](O)[C@@H](O)[C@H](O)[C@H]3CO)cc2)c1 [Compound 35] | 100 | 250 |  |  |  | 2 |  |  |
| OC[C@@H]1[C@@H](O)[C@H](O)[C@@H](O)CN1CCCCCOCc1ccc(-c2ccnc(F)c2)cc1 [Compound 16] | 150 | 2000 |  |  |  | 4 |  |  |
| COc1ccccc1-c1ccc(COCCCCCN2C[C@H](O)[C@@H](O)[C@H](O)[C@H]2CO)cc1 [Compound 31] | 50 | 600 |  | 0.7 |  |  |  |  |
